Measurements published in ChEMBL document CHEMBL1148019, “Heterocyclic substituted cantharidin and norcantharidin analogues--synthesis, protein phosphatase (1 and 2A) inhibition, and anti-cancer activity” (Bioorg Med Chem Lett, 2007).

Tests used:
A-431 [1] = assay: Cytotoxicity against human A431 cells; assay type: functional
SW480 [2] = assay: Cytotoxicity against human SW480 cells; assay type: functional
[3] = Cytotoxicity against human BE2-C cells; assay type: functional; details: BE(2)-C
MCF7 [4] = assay: Cytotoxicity against human MCF7 cells; assay type: functional
HT-29 [5] = assay: Cytotoxicity against human HT29 cells; assay type: functional
[6] = Inhibition of Protein phosphatase 1; parameters: species or system Homo sapiens
A2780 [7] = assay: Cytotoxicity against human A2780 cells; assay type: functional
[8] = Cytotoxicity against human SJ-G2 cells; assay type: functional
NCI-H460 [9] = assay: Cytotoxicity against human H460 cells; assay type: functional
DU-145 [10] = assay: Cytotoxicity against human DU145 cells; assay type: functional
[11] = Inhibition of Protein phosphatase 2A; parameters: species or system Homo sapiens
NCI-H460 [12] = assay: Cytotoxicity against human H460 cells at 100 uM; assay type: functional
A2780 [13] = assay: Cytotoxicity against human A2780 cells at 100 uM; assay type: functional
HT-29 [14] = assay: Cytotoxicity against human HT29 cells at 100 uM; assay type: functional
SW480 [15] = assay: Cytotoxicity against human SW480 cells at 100 uM; assay type: functional
[16] = Cytotoxicity against human SJ-G2 cells at 100 uM; assay type: functional
MCF7 [17] = assay: Cytotoxicity against human MCF7 cells at 100 uM; assay type: functional
[18] = Cytotoxicity against human BE2-C cells at 100 uM; assay type: functional; details: BE(2)-C
A-431 [19] = assay: Cytotoxicity against human A431 cells at 100 uM; assay type: functional
DU-145 [20] = assay: Cytotoxicity against human DU145 cells at 100 uM; assay type: functional
Homo sapiens [21] = species: Homo sapiens; assay: Inhibition of Protein phosphatase 2A at 100 uM
Homo sapiens [22] = species: Homo sapiens; assay: Inhibition of Protein phosphatase 1 at 100 uM

Row | SMILES | GI50 (A-431 [1]) [µM] | GI50 (SW480 [2]) [µM] | GI50 [3] [µM] | GI50 (MCF7 [4]) [µM] | GI50 (HT-29 [5]) [µM] | IC50 [6] [µM] | GI50 (A2780 [7]) [µM] | GI50 [8] [µM] | GI50 (NCI-H460 [9]) [µM] | GI50 (DU-145 [10]) [µM] | IC50 [11] [µM] | inhibition at 100 µM (NCI-H460 [12]) [%] | inhibition at 100 µM (A2780 [13]) [%] | inhibition at 100 µM (HT-29 [14]) [%] | inhibition at 100 µM (SW480 [15]) [%] | inhibition at 100 µM [16] [%] | inhibition at 100 µM (MCF7 [17]) [%] | inhibition at 100 µM [18] [%] | inhibition at 100 µM (A-431 [19]) [%] | inhibition at 100 µM (DU-145 [20]) [%] | further results
1 | O=C1OC(=O)[C@H]2[C@@H]1[C@@H]1CC[C@H]2O1 | 33 | 35 | 56 | 64 | 48 | 9 | 59 | 35 | 45 | 3 | 3 | – | – | – | – | – | – | – | – | – | –
2 | O=C(NCCN1CCOCC1)NC(=O)C1C(C(=O)O)[C@@H]2CC[C@H]1O2 (stereo partly specified) | – | – | – | – | – | 31 | – | – | – | – | 43 | 10 | 14 | 37 | 14 | 19 | 7.5 | 26 | 23 | 17 | –
3 | O=C(NCCc1cnc[nH]1)NC(=O)C1C(C(=O)O)[C@@H]2CC[C@H]1O2 (stereo partly specified) | – | – | – | – | – | – | – | – | – | – | – | 25 | 20 | 21 | 33 | 27 | 17 | 23 | 32 | 14 | inhibition (Homo sapiens [21]): 56%; inhibition (Homo sapiens [22]): 35%
4 | C[C@]1(C(=O)O)[C@@H]2CC[C@@H](O2)[C@@]1(C)C(=O)NC(=O)N1CCOCC1 | 2.9 | 3.9 | 2.5 | 5.8 | 2.8 | 5.9 | 4.9 | 2.1 | 3.3 | 1.7 | 0.79 | – | – | – | – | – | – | – | – | – | –
5 | C[C@@]12C(=O)OC(=O)[C@]1(C)[C@H]1CC[C@@H]2O1 [CANTHARIDIN] | 3.4 | 4.6 | 4.9 | 7 | 3.3 | 11 | 5.8 | 3 | 4 | 2.4 | 1.2 | – | – | – | – | – | – | – | – | – | –
6 | O=C(NC(=O)Nc1ccc(N2CCOCC2)cc1)NC(=O)C1C(C(=O)O)[C@@H]2CC[C@H]1O2 (stereo partly specified) | – | – | – | – | – | 6.5 | – | – | – | – | 7.9 | 19 | 18 | 23 | 29 | 21 | 20 | 13 | 21 | 17 | –
